Assay results as given in patent US20250215030A1, “STAT MODULATORS AND USES THEREOF” (Recludix Pharma, Inc., priority 2022, published 2025).

Each molecule was assayed against T1, pSTAT3 (pY705-STAT3) (Homo sapiens, UniProt P40763) (assay: MSD-pSTAT-PBMC Assay (pSTAT3, IL-6 stimulated)). Details: not given.
T1 construct: host or cells: cryopreserved PBMC
Type: cell-based
How it was run: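 Phospho-STAT levels captured on anti-STAT3 or anti-STAT6 plates and detected with anti-pY705 or anti-pY641 antibodies (MSD read-out). Cryopreserved human PBMCs received compound for 3 h before a 10 min pulse of IL-6 (10 ng/mL, STAT3) or IL-4 (1 ng/mL, STAT6). IC50 fitted after unstimulated-background subtraction and DMSO normalization.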

T1 sequence (P40763 whole entry): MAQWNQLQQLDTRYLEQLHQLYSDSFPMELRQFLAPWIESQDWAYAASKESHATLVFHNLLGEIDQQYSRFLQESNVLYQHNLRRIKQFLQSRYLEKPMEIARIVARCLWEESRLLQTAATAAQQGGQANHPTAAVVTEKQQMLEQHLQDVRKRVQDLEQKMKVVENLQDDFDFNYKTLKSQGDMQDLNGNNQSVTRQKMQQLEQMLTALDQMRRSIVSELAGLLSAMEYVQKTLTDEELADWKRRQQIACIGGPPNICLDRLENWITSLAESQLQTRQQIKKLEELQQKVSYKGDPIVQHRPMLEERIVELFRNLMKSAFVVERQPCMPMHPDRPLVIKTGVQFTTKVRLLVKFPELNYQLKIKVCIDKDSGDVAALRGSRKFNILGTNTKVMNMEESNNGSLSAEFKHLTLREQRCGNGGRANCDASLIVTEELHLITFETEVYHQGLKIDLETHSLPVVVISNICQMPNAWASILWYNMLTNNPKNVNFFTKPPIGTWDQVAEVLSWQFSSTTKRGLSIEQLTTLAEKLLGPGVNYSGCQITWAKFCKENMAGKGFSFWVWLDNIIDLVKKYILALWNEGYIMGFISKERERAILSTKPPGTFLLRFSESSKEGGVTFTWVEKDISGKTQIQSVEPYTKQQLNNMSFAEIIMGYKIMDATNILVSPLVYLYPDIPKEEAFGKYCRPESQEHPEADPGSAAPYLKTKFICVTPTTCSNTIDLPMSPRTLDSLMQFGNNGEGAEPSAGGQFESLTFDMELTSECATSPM

Structure (SMILES)	IC50 [nM]
Cc1ccncc1C1CN(C(=O)[C@@H]2CC[C@@H]3C[C@H]4C[C@H]4C[C@H](NC(=O)c4cc5cc(C(F)P(=O)(N[C@@H](C)C(=O)OC(C)C)Oc6ccccc6)ccc5s4)C(=O)N32)C1 (stereo partly drawn) [Compound 281, isopropyl ((fluoro(2-(((3S,6S,7aS,8aR,9aR)-3-(3-(4-methylpyridin-3-yl)azetidine-1-carbonyl)-5-oxodecahydro-1H-cyclopropa[d]pyrrolo[1,2-a]azocin-6-yl)carbamoyl)benzo[b]thiophen-5-yl)methyl)(phenoxy)phosphoryl)-L-alaninate]	< 100
CCCOC(=O)[C@H](CC)NP(=O)(Oc1ccccc1)C(F)c1ccc2sc(C(=O)N[C@H]3C[C@@H]4C[C@@H]4C[C@H]4CC[C@@H](C(=O)N5CC(c6cnccc6C)C5)N4C3=O)cc2c1 (stereo partly drawn) [Compound 283, propyl(2S)-2-(((fluoro(2-(((3S,6S,7aS,8aR,9aR)-3-(3-(4-methylpyridin-3-yl)azetidine-1-carbonyl)-5-oxodecahydro-1H-cyclopropa[d]pyrrolo[1,2-a]azocin-6-yl)carbamoyl)benzo[b]thiophen-5-yl)methyl)(phenoxy)phosphoryl)amino)butanoate]	< 100
CCCOC(=O)[C@H](COC)NP(=O)(Oc1ccccc1)C(F)c1ccc2sc(C(=O)N[C@H]3C[C@@H]4C[C@@H]4C[C@H]4CC[C@@H](C(=O)N5CC(c6cnccc6C)C5)N4C3=O)cc2c1 (stereo partly drawn) [Compound 284, propyl N-((fluoro(2-(((3S,6S,7aS,8aR,9aR)-3-(3-(4-methylpyridin-3-yl)azetidine-1-carbonyl)-5-oxodecahydro-1H-cyclopropa[d]pyrrolo[1,2-a]azocin-6-yl)carbamoyl)benzo[b]thiophen-5-yl)methyl)(phenoxy)phosphoryl)-O-methyl-L-serinate]	< 100
CCCOC(=O)[C@H](C)NP(=O)(Oc1ccccc1)C(F)c1ccc2sc(C(=O)N[C@H]3C[C@@H]4C[C@@H]4C[C@H]4CC[C@@H](C(=O)N5CC(N6CCS(=O)(=O)CC6)C5)N4C3=O)cc2c1 (stereo partly drawn) [Compound 310, propyl(((2-(((3S,6S,7aS,8aR,9aR)-3-(3-(1,1-dioxidothiomorpholino)azetidine-1-carbonyl)-5-oxodecahydro-1H-cyclopropa[d]pyrrolo[1,2-a]azocin-6-yl)carbamoyl)benzo[b]thiophen-5-yl)fluoromethyl)(phenoxy)phosphoryl)-L-alaninate]	> 3000

Same assay, conditions: PBMC, compound 3 hrs, then 10 ng/mL IL-6 for 10 min; MSD pY705-STAT3; read-out: pSTAT3

Structure (SMILES)	IC50 [nM]
CCCOC(=O)[C@H](C)NP(=O)(Cc1ccc2sc(C(=O)N[C@H]3C[C@H]4C[C@H]4C[C@H]4CC[C@@H](C(=O)N[C@H]5CN(c6cccnc6)C[C@@H]5F)N4C3=O)cc2c1)Oc1ccccc1 (stereo partly drawn) [Compound 269, propyl(((2-(((3S,6S,7aR,8aS,9aR)-3-(((3S,4S)-4-fluoro-1-(pyridin-3-yl)pyrrolidin-3-yl)carbamoyl)-5-oxodecahydro-1H-cyclopropa[d]pyrrolo[1,2-a]azocin-6-yl)carbamoyl)benzo[b]thiophen-5-yl)methyl)(phenoxy)phosphoryl)-L-alaniante]	< 100
CCCOC(=O)C(C)(C)NP(=O)(Oc1ccccc1)C(F)c1ccc2sc(C(=O)N[C@H]3C[C@@H]4C[C@@H]4C[C@H]4CC[C@@H](C(=O)N5CC(c6cnccc6C)C5)N4C3=O)cc2c1 (stereo partly drawn) [Compound 285, propyl 2-(((fluoro(2-(((3S,6S,7aS,8aR,9aR)-3-(3-(4-methylpyridin-3-yl)azetidine-1-carbonyl)-5-oxodecahydro-1H-cyclopropa[d]pyrrolo[1,2-a]azocin-6-yl)carbamoyl)benzo[b]thiophen-5-yl)methyl)(phenoxy)phosphoryl)amino)-2-methylpropanoate]	< 100
CCCOC(=O)[C@H](C)NP(=O)(OCC(F)(F)F)C(F)c1ccc2sc(C(=O)N[C@H]3C[C@@H]4C[C@@H]4C[C@H]4CC[C@@H](C(=O)N5CC(c6cnccc6C)C5)N4C3=O)cc2c1 (stereo partly drawn) [Compound 287, propyl ((fluoro(2-(((3S,6S,7aS,8aR,9aR)-3-(3-(4-methylpyridin-3-yl)azetidine-1-carbonyl)-5-oxodecahydro-1H-cyclopropa[d]pyrrolo[1,2-a]azocin-6-yl)carbamoyl)benzo[b]thiophen-5-yl)methyl)(2,2,2-trifluoroethoxy)phosphoryl)-L-alaninate]	< 100
CC(C)(C)C(=O)SCCOP(=O)(OCCSC(=O)C(C)(C)C)C(F)c1ccc2sc(C(=O)N[C@H]3C[C@@H]4C[C@@H]4C[C@H]4CC[C@@H](C(=O)N5CC(c6cnccc6F)C5)N4C3=O)cc2c1 (stereo partly drawn) [Compound 306, S,S′-((((fluoro(2-(((3S,6S,7aS,8aR,9aR)-3-(3-(4-fluoropyridin-3-yl)azetidine-1-carbonyl)-5-oxodecahydro-1H-cyclopropa[d]pyrrolo[1,2-a]azocin-6-yl)carbamoyl)benzo[b]thiophen-5-yl)methyl)phosphoryl)bis(oxy))bis(ethane-2,1-diyl))bis(2,2-dimethylpropanethioate)]	< 100
CCCOC(=O)[C@H](C)NP(=O)(Oc1ccccc1)C(F)c1ccc2sc(C(=O)N[C@H]3C[C@@H]4C[C@@H]4C[C@H]4CC[C@@H](C(=O)N5CC(c6cnccc6C)C5)N4C3=O)cc2c1 (stereo partly drawn) [Compound 307, propyl ((fluoro(2-(((3S,6S,7aS,8aR,9aR)-3-(3-(4-methylpyridin-3-yl)azetidine-1-carbonyl)-5-oxodecahydro-1H-cyclopropa[d]pyrrolo[1,2-a]azocin-6-yl)carbamoyl)benzo[b]thiophen-5-yl)methyl)(phenoxy)phosphoryl)-L-alaninate]	< 100
CC(C)(C)C(=O)SCCOP(=O)(OCCSC(=O)C(C)(C)C)C(F)(F)c1ccc2sc(C(=O)N[C@H]3C[C@@H]4C[C@@H]4C[C@H]4CC[C@@H](C(=O)N5CC(c6cnccc6F)C5)N4C3=O)cc2c1 [Compound 308, S,S′-((((difluoro(2-(((3S,6S,7aS,8aR,9aR)-3-(3-(4-fluoropyridin-3-yl)azetidine-1-carbonyl)-5-oxodecahydro-1H-cyclopropa[d]pyrrolo[1,2-a]azocin-6-yl)carbamoyl)benzo[b]thiophen-5-yl)methyl)phosphoryl)bis(oxy))bis(ethane-2,1-diyl))bis(2,2-dimethylpropanethioate)]	< 100
CCCOC(=O)[C@H](C)NP(=O)(Oc1ccccc1)C(F)c1ccc2sc(C(=O)N[C@H]3C[C@@H]4C[C@@H]4C[C@H]4CC[C@@H](C(=O)N5CC(c6nncn6C)C5)N4C3=O)cc2c1 (stereo partly drawn) [Compound 309, propyl ((fluoro(2-(((3S,6S,7aS,8aR,9aR)-3-(3-(4-methyl-4H-1,2,4-triazol-3-yl)azetidine-1-carbonyl)-5-oxodecahydro-1H-cyclopropa[d]pyrrolo[1,2-a]azocin-6-yl)carbamoyl)benzo[b]thiophen-5-yl)methyl)(phenoxy)phosphoryl)-L-alaninate]	> 3000
CCCOC(=O)[C@H](C)NP(=O)(Cc1ccc2sc(C(=O)N[C@H]3C[C@@H]4C[C@@H]4C[C@H]4CC[C@@H](C(=O)N5CC(c6cnccc6C)C5)N4C3=O)cc2c1)OCC(F)(F)F (stereo partly drawn) [Compound 311, propyl(((2-(((3S,6S,7aS,8aR,9aR)-3-(3-(4-methylpyridin-3-yl)azetidine-1-carbonyl)-5-oxodecahydro-1H-cyclopropa[d]pyrrolo[1,2-a]azocin-6-yl)carbamoyl)benzo[b]thiophen-5-yl)methyl)(2,2,2-trifluoroethoxy)phosphoryl)-L-alaninate]	< 100
CC(C)(C)C(=O)SCCOP(=O)(OCCSC(=O)C(C)(C)C)C(F)(F)c1ccc2sc(C(=O)N[C@H]3C[C@@H]4C[C@@H]4C[C@H]4CC[C@@H](C(=O)N5CC(c6ccccn6)C5)N4C3=O)cc2c1 [Compound 314]	< 100
CCCOC(=O)[C@H](C)NP(=O)(Oc1ccccc1)C(F)c1ccc2sc(C(=O)N[C@H]3C[C@@H]4C[C@@H]4C[C@H]4CC[C@@H](C(=O)N5CC(c6ncccn6)C5)N4C3=O)cc2c1 (stereo partly drawn) [Compound 315, propyl ((fluoro(2-(((3S,6S,7aS,8aR,9aR)-5-oxo-3-(3-(pyrimidin-2-yl)azetidine-1-carbonyl)decahydro-1H-cyclopropa[d]pyrrolo[1,2-a]azocin-6-yl)carbamoyl)benzo[b]thiophen-5-yl)methyl)(phenoxy)phosphoryl)-L-alaninate]	100 to 1000
CCCOC(=O)[C@H](C)NP(=O)(Oc1ccccc1)C(F)c1ccc2sc(C(=O)N[C@H]3C[C@@H]4C[C@@H]4C[C@H]4CC[C@@H](C(=O)N5CC(c6ccon6)C5)N4C3=O)cc2c1 (stereo partly drawn) [Compound 316, propyl ((fluoro(2-(((3S,6S,7aS,8aR,9aR)-3-(3-(isoxazol-3-yl)azetidine-1-carbonyl)-5-oxodecahydro-1H-cyclopropa[d]pyrrolo[1,2-a]azocin-6-yl)carbamoyl)benzo[b]thiophen-5-yl)methyl)(phenoxy)phosphoryl)-L-alaninate]	< 100
CCCOC(=O)[C@H](C)NP(=O)(Oc1ccccc1)C(F)c1ccc2sc(C(=O)N[C@H]3C[C@H]4C[C@H]4C[C@H]4CC[C@@H](C(=O)N5CC(c6cnccc6OC)C5)N4C3=O)cc2c1 (stereo partly drawn) [Compound 319, propyl ((fluoro(2-(((3S,6S,7aR,8aS,9aR)-3-(3-(4-methoxypyridin-3-yl)azetidine-1-carbonyl)-5-oxodecahydro-1H-cyclopropa[d]pyrrolo[1,2-a]azocin-6-yl)carbamoyl)benzo[b]thiophen-5-yl)methyl)(phenoxy)phosphoryl)-L-alaninate]	< 100
CCCOC(=O)[C@H](C)NP(=O)(Oc1ccccc1)C(F)c1ccc2sc(C(=O)N[C@H]3C[C@H]4C[C@H]4C[C@H]4CC[C@@H](C(=O)N5CC(c6cnccc6C)C5)N4C3=O)cc2c1 (stereo partly drawn) [Compound 321, propyl ((fluoro(2-(((3S,6S,7aR,8aS,9aR)-3-(3-(4-methylpyridin-3-yl)azetidine-1-carbonyl)-5-oxodecahydro-1H-cyclopropa[d]pyrrolo[1,2-a]azocin-6-yl)carbamoyl)benzo[b]thiophen-5-yl)methyl)(phenoxy)phosphoryl)-L-alaninate]	< 100
